Where no end group is shown, it is not given here.
Columns and labels:
[1] = Peptide bioavailability in primate eyes, vitreous humor by mass spectrometry; type: in vivo, primate (Vervets); conditions: 100 μg topical
From the text: From the studies using the DR mouse model, two active, structurally diverse peptides 81-5 and 81-13 were selected to test their availability in the primate eye when given topically. There are substantial differences between the eyes of rodents, primates, and humans. The most obvious is size of the aqueous and vitreous fluid compartments. Fluid flow forward from the ciliary body in primates/humans is countercurrent to drug movement to the back of the eye and may influence drug concentrations in the vitreous. In this study, it was examined whether the selected compounds had access to the retina when given topically to primate eyes as they do in rodents. Peptide doses used were scaled up by 8-20 fold as an estimate to account for differences in eye volume between rodents and primates.
Adult males and females were equally distributed into 3 treatment groups (Table 3) and randomized by weight criteria. Animals were fasted overnight then sedated with ketamine (8 mg/kg, I.M) and xylazine (1.6 mg/kg, I.M) prior to all procedures. Two monkeys received a topical dose of 40 μg (40 μl) of 81-5 OU (both eyes) and underwent vitreocentesis at ˜1 hr (Group 1) after dosing. […]
Samples were analyzed by mass spectrometry and concentrations calculated using a standard curve that plotted intensity vs known concentration. […]

[2] = Peptide bioavailability in mouse vitreous after 5 μg eye drop (MALDI TOF); type: in vivo, C57BL/6 mice; conditions: mouse, in vivo
Method: Before the longitudinal efficacy studies were carried out in vivo, the bioavailability of the five analogs was examined in comparison to the parent compound P78 and its active 29-mer derivative, SpxA1.
Bioavailability of each peptide was determined in vitreous samples obtained at various time points after eye drops were given. Vitreous samples were harvested from enucleated eyes and immediately analyzed by mass spectrometry. Spectral intensities were compared to spectra of known concentrations of each analog to calculate amounts of peptides reaching the vitreous. The eye drops administered to normal mouse eyes contained 5 μg of the test compound. Bioavailability was studied at three time points: 1, 4, 6 hr using four animals/time point (n=8 eyes). The vitreous was rapidly dissected from each group after the drops were given and immediately analyzed by MALDI TOF.

transcription factors = test: Procarta multiplex transcription factor DNA binding activity; type: cell-based; conditions: 50 nM peptides, 48 hr, human RPE cells
Method: Activation of transcription factors by P78, spx or 81-5 was measured in human RPE cells. The Affymetrix Procarta Multiplex Transcription factor panel (Affymetrix, Inc. Santa Clara, Calif.) was used to obtain quantitative measurement of DNA binding activity of 44 transcription factors. Cells were seeded at 1×10^5 cells/ml in 6 well plates. Cells were treated with 50 nM peptides in 2% FBS medium for 48 hr, peptides were supplied twice after 24 hr. Cells were harvested using Buffer A working reagent (250 μl well)(1 ml Buffer A: 10 μl DTT, 10 μl protease inhibitor, 10 μl phosphatase inhibitor I, 10 μl phosphatase inhibitor II) and centrifuged at 14,000×g for 3 min at 4° C. Supernatant containing cytoplasmic proteins was collected and protein concentration estimated using the BioRad DC protein assay. To the nuclear pellets, 30 μl/well buffer B (1 ml Buffer B: 10 μl DTT, 10 μl protease inhibitor, 10 μl phosphatase inhibitor I) was added and the samples incubated for 2 hours at 200 rpm. Supernatant containing nuclear proteins was collected by centrifugation at 14,000×g for 5 min at 4° C. and protein concentration measured using Bio-Rad DC protein assay. […] The beads were washed again, resuspended with reading buffer, and incubated for 5 min at room temperature. DNA binding activity of the transcription factors was measured using the Bio-Plex 200 system (bio-Rad) and the xMAP technology.

regulation of transcription factors (transcription factors) | Molecule | peptide concentration in the vitreous, 1 versus 2 hr [1] | bioavailability profile in rodents [2]
 | SALSLGAAERTESIIHR [Peptide 81-13, SALSLGAAERTESIIHR] | not significantly different between the 1 and 2 hr treatment | comparable bioavailability profiles with 81-5
regulates transcription factors | Pigment epithelium derived factor (protein) QNVPSSSEGSPVPDSTGEPVEEEDPFFKVPVNKLAAAVSNFGYDLYRLRSSASPTGNVLLSPLSVATALSALSLGAEHRTESVIHRALYYDLITNPDIHSTYKELLASVTAPEKNLKSASRIVFERKLRVKSSFVAPLEKSYGTRPRILTGNPRVDLQEINNWVQAQMKGKIARSTREMPSALSILLLGVAYFKGQWVTKFDSRKTTLQDFHLDEDRTVRVPMMSDPKAILRYGLDSDLNCKIAQLPLTGSMSIIFFLPLTVTQNLTMIEESLTSEFIHDIDRELKTIQAVLTVPKLKLSFEGELTKSLQDMKLQSLFESPDFSKITGKPVKLTQVEHRAAFEWNEEGAGSSPSPGLQPVRLTFPLDYHLNQPFLFVLRDTDTGALLFIGRILDPSST |  | 

Source: patent US9611314B2, “Functional peptide analogs of PEDF” (The Penn State Research Foundation, priority 2013, dated 2017)
